“Also recorded” adds a separate entry of the source.
Legend:
[1] = tested on: oxaliplatin induced hyperalgesia in the rat; assay: Oxaliplatin induced hyperalgesia in the rat paw-pressure test; type: in vivo; settings: for Paw pressure, pre-test before all treatments: baseline, drug 100 mg/kg p.o.; for Paw pressure, 1a week - 30 min / Paw pressure, 2a week - 30 min / Paw pressure, 3a week - 30 min / Paw pressure, 3a week - 4 h / Paw pressure, 3a week - 8 h / Paw pressure, 3a week - 24 h: drug 100 mg/kg p.o. once daily
Procedure: Drugs: The following substance was used: NT-13317 (batch No. RR0011-184A1 supplied by Brane Discovery Srl, Gerenzano Italy). NT-13317 was dissolved in DMSO 20%, 10% glucose and administered at the dose of 10, 30 and 100 mg/kg p.o.
Gabapentin (Sigma) was dissolved in 1% CMC (carboxymethylcellulose-Sigma) and orally administered at 100 mg/kg, and dissolved in saline and i.v. administered at 3 mg/kg.
Oxaliplatin model: A peripheral neuropathy was induced in adult rats, by administration of oxaliplatin (Tocris), at 2.4 mg/kg i.p. in saline once a day on days 1, 2, 3, 4, 5, 8, 9, 10, 11, 12, 15, 16, 17, 18, 19 (cumulative dose 36 mg/kg) according to [1].
In the first experiment NT-13317 and gabapentin were given chronically at the dose 100 mg/kg po starting 3 days before oxaliplatin and every day for 5 days/week for 3 weeks.
A dose-response experiment was then performed with NT-13317 (10, 30 and 100 mg/kg po) using the same treatment schedule.
Paw pressure test: Paw mechanical sensitivity was determined using a Randall & Selitto apparatus exerting a force that increases at constant rate (32 g/s). The stimulus at which rats withdrawn the paw was evaluated before and at different times after treatment. Results represent the mean of mechanical thresholds expressed as grams. To avoid any possible damage to the animal paw the maximum applied force was fixed at 240 g.
(§1) Statistical analysis: All experimental results are given as the mean±S.E.M. An analysis of variance, ANOVA, followed by Fisher's protected least significant difference procedure for post hoc comparison, were used to verify significance between two means of behavioral results. Data were analyzed with the StatView software for the Macintosh (1992). P values≦0.05 were considered significant.

[2] = tested on: chronic constriction injury induced hyperalgesia in the rat; assay: Chronic constriction injury induced hyperalgesia in the rat (paw-pressure test); type: in vivo; settings: for Paw pressure, pre-test before all treatments: baseline, drug 100 mg/kg p.o.; for Paw pressure, 5 day 30 min / Paw pressure, 10 day 30 min / Paw pressure, 14 day 30 min / Paw pressure, 14 day 4 h / Paw pressure, 14 day 8 h / Paw pressure, 15 day 24 h / Paw pressure, 18 day 3 days: 100 mg/kg p.o. once a day for 14 days
Procedure: In the repeated administration protocol, NT-13317 was orally administered at 100 mg/kg in 1% CMC once a day for 14 days starting from the day of sciatic nerve ligation.
Peripheral rat mononeuropathy (Chronic constriction injury): Neuropathy was induced according to the procedure described by Bennett and Xie (Bennett G J, Xie Y K. A peripheral mononeuropathy in rat that produces disorders of pain sensation like those seen in man. Pain 1988; 33: 87-107).
Briefly, rats were anaesthetized with chloral hydrate 400 mg/kg intraperitoneally (i.p.); under aseptic conditions, the right common sciatic nerve was exposed at the level of the middle thigh by blunt dissection. Proximal to the trifurcation, the nerve was carefully freed from the surrounding connective tissue and four chromic cat gut ligatures (4-0, Ethicon, Norderstedt, Germany) were tied loosely around it with about 1 mm spacing. After haemostasis was confirmed, the incision was closed in layers. Then animals were allowed to recover from anaesthesia and surgery and were kept one per cage with free access to water and standard laboratory chow.
as §1, with “behavioural” for “behavioral”
Data of mechanical threshold (PWT) were converted to a percentage of the maximal possible effect (% MPE), according to Veneroni, O. et al. as follows: %MPE=(left dose PWT−left pre-dose control PWT)/(left naïve PWT−left pre-dose PWT)*100
The obtained % MPE were employed for ED50 calculation (obtained by Grafit v. 5.0), defined as the dose producing 50% reversal of mechanical allodynia.

Structure (SMILES): Cc1ccc(N2C(=O)CN3C(=O)CCC32)cc1 (stereo not shown) [NT-13317, 1-p-tolyl-tetrahydropyrrolo[1,2a]imidazole-2,5-dione]
- Dose-response experiment, 100 mg/kg ([1]; 100 mg/kg p.o.): confirmed the results of the first experiment
- Effect 4 h after administration at the end of the third week ([1]; 100 mg/kg p.o.): retained maximal efficacy; also recorded: still a beneficial effect
- Effect 8 hr after administration at the end of the third week ([1]; 100 mg/kg p.o.): not any more significant
- Reduction of mechanical hyperalgesia over three weeks of treatment (in words) ([1]; 100 mg/kg p.o. once daily, 5 days/week for 3 weeks): statistically significant reduction of mechanical hyperalgesia; also recorded: maximal at the end of week 3
- Dose-response experiment, lower doses ([1]; 10 and 30 mg/kg p.o.): inactive
- Paw pressure, pre-test before all treatments ([1]; oxaliplatin i.p. group): 58.9 ± 3.7 g
- Paw pressure, 1a week - 30 min ([1]; oxaliplatin i.p.): 68.7 ± 5.2 g
- Paw pressure, 2a week - 30 min ([1]; oxaliplatin i.p.): 74.3 ± 6.1 g
- Paw pressure, 3a week - 30 min ([1]; oxaliplatin i.p.): 79.2 ± 6.3 g
- Paw pressure, 3a week - 4 h ([1]; oxaliplatin i.p.): 74.3 ± 4.3 g
- Paw pressure, 3a week - 8 h ([1]; oxaliplatin i.p.): 53.5 ± 6.3 g
- Paw pressure, 3a week - 24 h ([1]; oxaliplatin i.p.): 40.6 ± 5.0 g
- Paw pressure, pre-test before all treatments ([1]; vehicle i.p. (no oxaliplatin) group): 60.6 ± 3.9 g
- Paw pressure, 1a week - 30 min ([1]; vehicle i.p. (no oxaliplatin)): 63.0 ± 4.3 g
- Paw pressure, 2a week - 30 min ([1]; vehicle i.p. (no oxaliplatin)): 66.1 ± 4.5 g
- Paw pressure, 3a week - 30 min ([1]; vehicle i.p. (no oxaliplatin)): 74.8 ± 5.4 g
- Paw pressure, 3a week - 4 h ([1]; vehicle i.p. (no oxaliplatin)): 73.8 ± 4.4 g
- Paw pressure, 3a week - 8 h ([1]; vehicle i.p. (no oxaliplatin)): 68.5 ± 3.7 g
- Paw pressure, 3a week - 24 h ([1]; vehicle i.p. (no oxaliplatin)): 69.9 ± 4.6 g
- Paw pressure, pre-test before all treatments ([2]; CCI group): 60.7 ± 2.7 g
- Paw pressure, 5 day 30 min ([2]; CCI): 41.6 ± 4.2 g
- Paw pressure, 10 day 30 min ([2]; CCI): 51.9 ± 5.2 g
- Paw pressure, 14 day 30 min ([2]; CCI): 53.4 ± 5.5 g
- Paw pressure, 14 day 4 h ([2]; CCI): 52.9 ± 5.2 g
- Paw pressure, 14 day 8 h ([2]; CCI): 51.6 ± 4.4 g
- Paw pressure, 15 day 24 h ([2]; CCI): 47.8 ± 4.7 g
- Paw pressure, 18 day 3 days ([2]; CCI): 43.6 ± 5.1 g
- Paw pressure, pre-test before all treatments ([2]; SHAM group): 62.3 ± 3.5 g
- Paw pressure, 5 day 30 min ([2]; SHAM): 57.7 ± 4.3 g
- Paw pressure, 10 day 30 min ([2]; SHAM): 55.8 ± 5.0 g
- Paw pressure, 14 day 30 min ([2]; SHAM): 59.2 ± 3.9 g
- Paw pressure, 14 day 4 h ([2]; SHAM): 57.2 ± 4.4 g
- Paw pressure, 14 day 8 h ([2]; SHAM): 63.2 ± 6.0 g
- Paw pressure, 15 day 24 h ([2]; SHAM): 61.6 ± 5.2 g
- Paw pressure, 18 day 3 days ([2]; SHAM): 60.7 ± 6.2 g
- Activity relative to gabapentin ([2]; i.c.v. single administration): ten times more active than gabapentin
- Effect on paw pressure test after the last administration (in words) ([2]; p.o. 100 mg/kg once a day for 14 days from the day of sciatic nerve ligation): significant effect on paw pressure test up to 24 hr

— patent US9125898B2, “Acetam derivatives for pain relief” (NEUROTUNE AG, priority 2008, dated 2015)
